# Legend:
# Design in all cases: scale not given here
# [1] = system: ABUTH Velvetleaf; assay: Preemergence herbicidal evaluation, ABUTH; type: in vivo, Abutilon theophrasti, Medic.; settings: preemergence
# In short: (§1)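 First, seed is blended with potting soil and sown over roughly an inch of soil per cup. Next, the surface is sprayed with an aqueous acetone solution delivering about 0.013–0.800 kg/ha. Finally, cups are grown in the greenhouse and rated after 4–5 weeks.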
# [2] = system: ZEAMX Corn, Field; assay: Preemergence herbicidal evaluation, ZEAMX; type: in vivo, Zea mays, L. (Sammel-Bezeichnung); settings: preemergence
# In short: as §1
# [3] = system: TRZAWR Wheat, Winter, cv Riband; assay: Postemergence herbicidal evaluation, TRZAWR; type: in vivo, Triticum aestivum; settings: postemergence spray, rated about two-three weeks after treatment
# In short: (§2)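 Ratings from greenhouse plants scored about two to three weeks after a foliar spray; data from multiple tests averaged. Seedlings about two weeks old received roughly 0.006–0.400 kg/ha active compound in 80/20 acetone/water with 1.0% methylated seed oil.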
# [4] = system: ABUTH Velvetleaf; assay: Postemergence herbicidal evaluation, ABUTH; type: in vivo, Abutilon theophrasti, Medic.; settings: postemergence spray, rated about two-three weeks after treatment
# In short: as §2
# [5] = system: ECHOG Barnyardgrass; assay: Postemergence herbicidal evaluation, ECHOG; type: in vivo, Echinochloa crus-galli, (L.) Beau; settings: postemergence spray, rated about two-three weeks after treatment
# In short: as §2
compound,measurement,setting,value
"Cc1ccc(O)c(-n2nnc3cc(F)c(-n4c(=O)cc(C(F)(F)F)n(C)c4=O)cc32)c1 [Example 31, 3-[5-Fluoro-1-(2-Hydroxy-5-Methylphenyl)-1H-1,2,3-Benzotriazol-6-yl]-1-Methyl-6-(Trifluoromethyl)-2,4(1H,3H)-(Pyrimidinedione)]",ABUTH herbicidal rating,[1]; rate 0.008 kg/ha,0.0
same,ABUTH herbicidal rating,[1]; rate 0.016 kg/ha,0.0
same,ABUTH herbicidal rating,[1]; rate 0.032 kg/ha,0.0
same,ABUTH herbicidal rating,[1]; rate 0.062 kg/ha,0.0
same,ABUTH herbicidal rating,[1]; rate 0.125 kg/ha,3.0
same,ZEAMX herbicidal rating,[2]; rate 0.008 kg/ha,0.0
same,ZEAMX herbicidal rating,[2]; rate 0.016 kg/ha,0.0
same,ZEAMX herbicidal rating,[2]; rate 0.032 kg/ha,0.0
same,ZEAMX herbicidal rating,[2]; rate 0.062 kg/ha,0.0
same,ZEAMX herbicidal rating,[2]; rate 0.125 kg/ha,0.0
same,Postemergence herbicidal rating TRZAWR,[3]; 0.008 kg/ha,2.0
same,Postemergence herbicidal rating TRZAWR,[3]; 0.016 kg/ha,2.0
same,Postemergence herbicidal rating TRZAWR,[3]; 0.032 kg/ha,3.0
same,Postemergence herbicidal rating TRZAWR,[3]; 0.062 kg/ha,3.0
same,Postemergence herbicidal rating ABUTH,[4]; 0.008 kg/ha,0.0
same,Postemergence herbicidal rating ABUTH,[4]; 0.016 kg/ha,0.0
same,Postemergence herbicidal rating ABUTH,[4]; 0.032 kg/ha,2.0
same,Postemergence herbicidal rating ABUTH,[4]; 0.062 kg/ha,4.0
same,Postemergence herbicidal rating ECHCG,[5]; 0.008 kg/ha,0.0
same,Postemergence herbicidal rating ECHCG,[5]; 0.016 kg/ha,0.0
same,Postemergence herbicidal rating ECHCG,[5]; 0.032 kg/ha,0.0
same,Postemergence herbicidal rating ECHCG,[5]; 0.062 kg/ha,3.0
